Starred links: 1 amine or outer side, 2 acyl side, 3 side chain; linkers in the order of their positions; H or OH if unused. Positions of bridges follow the written chain, without caps; N, C: chain ends. Non-standard residues stand in square brackets, D forms with d. Residues, ends and D or L forms follow the SMILES beside them. *: point of attachment. X8 = O=C([C@H](Cc1cccc([*:3])c1)N[*:1])[*:2]; X3 = O=C([C@H](Cc1ccccc1[*:3])N[*:1])[*:2]; X7 = c1ccc(-c2ccccc2C[*:2])c(C[*:1])c1; mXylylene = c1cc(C[*:1])cc(C[*:2])c1; oXylylene = c1ccc(C[*:2])c(C[*:1])c1; X2 = c1ccc2cc(C[*:2])c(C[*:1])cc2c1; X6 = c1ccc2nc(C[*:2])c(C[*:1])nc2c1; Stearoyl = CCCCCCCCCCCCCCCCCC(=O)*; βAla = NCCC(=O)O
Each compound was assayed against Keap1-Maltose Binding Protein (MBP tag) (Homo sapiens, UniProt Q14145) (assay: Nrf2-Keap1 HTRF (TR-FRET) binding assay: displacement of biotinylated ETGE peptide from Keap1-MBP). Settings: HTRF (TR-FRET); displacement of ETGE-biotin from Keap1-MBP; values banded into grades; read-out: Binding (IC50) ETGE-Keap1.
Chain of Keap1-Maltose Binding Protein (MBP tag) (Q14145 whole entry): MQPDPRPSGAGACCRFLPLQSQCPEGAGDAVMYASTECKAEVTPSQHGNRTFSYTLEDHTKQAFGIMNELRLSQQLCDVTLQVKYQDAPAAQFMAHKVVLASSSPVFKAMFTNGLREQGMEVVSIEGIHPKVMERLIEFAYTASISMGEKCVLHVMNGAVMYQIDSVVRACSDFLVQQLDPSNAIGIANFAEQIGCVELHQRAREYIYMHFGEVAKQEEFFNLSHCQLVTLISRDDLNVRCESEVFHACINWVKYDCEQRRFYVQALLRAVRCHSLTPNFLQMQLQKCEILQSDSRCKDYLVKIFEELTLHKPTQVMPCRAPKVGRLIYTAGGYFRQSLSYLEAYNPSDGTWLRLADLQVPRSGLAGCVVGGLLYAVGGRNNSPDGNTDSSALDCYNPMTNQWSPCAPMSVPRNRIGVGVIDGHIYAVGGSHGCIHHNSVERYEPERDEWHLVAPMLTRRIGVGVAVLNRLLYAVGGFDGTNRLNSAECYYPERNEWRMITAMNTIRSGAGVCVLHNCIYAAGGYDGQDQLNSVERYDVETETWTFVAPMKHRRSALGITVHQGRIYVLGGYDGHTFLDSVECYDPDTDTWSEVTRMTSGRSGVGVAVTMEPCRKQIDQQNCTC
For `CC(C)C[C@H](NC(=O)[C@@H]1CSCc2ccccc2CSC[C@H](NC(=O)[C@H](CCC(N)=O)NC(=O)[C@@H](N)CC(C)C)C(=O)N[C@@H](CC(=O)O)C(=O)N[C@@H](C)C(=O)N[C@@H](CCC(=O)O)C(=O)N[C@@H]([C@@H](C)O)C(=O)NCC(=O)N[C@@H](CCC(=O)O)C(=O)N1)C(=O)N1CCC[C@H]1C(=O)O` [Example 19, {[H-Leu-Gln-Cys(&^1)-Asp-Ala-Glu-Thr-Gly-Glu-Cys(&^2)-Leu-Pro-OH][&^1(1,2-phenylenediyl)dimethylene&^2]}] (H-LQCDAETGECLP-OH; linker 3-10 via oXylylene), the IC50 was 1 to 100 nM.
`CC(=O)N[C@H]1CSCc2ccccc2CSC[C@@H](C(N)=O)NC(=O)[C@H](CCC(=O)O)NC(=O)CNC(=O)[C@H]([C@@H](C)O)NC(=O)[C@H](CCC(=O)O)NC(=O)[C@H](C)NC(=O)[C@H](CC(=O)O)NC1=O` [Example 20, {[Acetyl-Cys(&^1)-Asp-Ala-Glu-Thr-Gly-Glu-Cys(&^2)-NH2][&^1(1,2-phenylenediyl)dimethylene&^2]}] was tested, and the IC50 was 1 to 100 nM.
Work on `CC(=O)N[C@H]1Cc2cccc(c2)SC[C@@H](C(N)=O)NC(=O)[C@H](CCC(=O)O)NC(=O)CNC(=O)[C@H]([C@@H](C)O)NC(=O)[C@H](CCC(=O)O)NC(=O)[C@H](CCC(=O)O)NC(=O)[C@H](CC(=O)O)NC1=O` [Example 22, Acetyl-Phe(m-&^1)-Asp-Glu-Glu-Thr-Gly-Glu-Cys(&^1)-NH2] (Ac-[X8]DEETGEC-NH2; thioether 1-8) yielded an IC50 of 1 to 100 nM.
For `CC(=O)N[C@H]1Cc2ccccc2SC[C@@H](C(N)=O)NC(=O)[C@H](CCC(=O)O)NC(=O)CNC(=O)[C@H]([C@@H](C)O)NC(=O)[C@H](CCC(=O)O)NC(=O)[C@H](CCC(=O)O)NC(=O)[C@H](CC(=O)O)NC1=O` [Example 23, Acetyl-Phe(o-&^1)-Asp-Glu-Glu-Thr-Gly-Glu-Cys(&^1)-NH2] (Ac-[X3]DEETGEC-NH2; thioether 1-8), the IC50 was 1 to 100 nM.
`CC(=O)N[C@H]1CSCc2ccccc2-c2ccccc2CSC[C@@H](C(N)=O)NC(=O)[C@H](CCC(=O)O)NC(=O)CNC(=O)[C@H]([C@@H](C)O)NC(=O)[C@H](CCC(=O)O)NC(=O)[C@H](CCC(=O)O)NC(=O)[C@H](CC(=O)O)NC1=O` [Example 24, {[Acetyl-Cys(&^1)-Asp-Glu-Glu-Thr-Gly-Glu-Cys(&^2)-NH2][&^1(1,1′-biphenyl)2,2′-diyldimethylene&^2]}] (Ac-CDEETGEC-NH2; linker 1-8 via X7) gave an IC50 of 1 to 100 nM.
Compound `CC(=O)N[C@H]1CSCc2nc3ccccc3nc2CSC[C@@H](C(N)=O)NC(=O)[C@H](CCC(=O)O)NC(=O)CNC(=O)[C@H]([C@@H](C)O)NC(=O)[C@H](CCC(=O)O)NC(=O)[C@H](CCC(=O)O)NC(=O)[C@H](CC(=O)O)NC1=O` [Example 26, {[Acetyl-Cys(&^1)-Asp-Glu-Glu-Thr-Gly-Glu-Cys(&^2)-NH2][&^1(quinoxaline)2,3-diyldimethylene&^2]}] (Ac-CDEETGEC-NH2; linker 1-8 via X6) has an IC50 of 1 to 100 nM.
`CC(=O)N[C@H]1CSCc2cc3ccccc3cc2CSC[C@@H](C(N)=O)NC(=O)[C@H](CCC(=O)O)NC(=O)CNC(=O)[C@H]([C@@H](C)O)NC(=O)[C@H](CCC(=O)O)NC(=O)[C@H](CCC(=O)O)NC(=O)[C@H](CC(=O)O)NC1=O` [Example 27, {[Acetyl-Cys(&^1)-Asp-Glu-Glu-Thr-Gly-Glu-Cys(&^2)-NH2][&^1(naphthalene)2,3-diyldimethylene&^2]}] (Ac-CDEETGEC-NH2; linker 1-8 via X2) showed an IC50 of 1 to 100 nM.
`CCCCCCCCCCCCCCCCCC(=O)NCCC(=O)N[C@H]1CSCc2ccccc2CSC[C@@H](C(N)=O)NC(=O)[C@H](CCC(=O)O)NC(=O)CNC(=O)[C@H]([C@@H](C)O)NC(=O)[C@H](CCC(=O)O)NC(=O)[C@H](C)NC(=O)[C@H](CC(=O)O)NC1=O` [Example 28, {[Stearyl-βAla-Cys(&^1)-Asp-Ala-Glu-Thr-Gly-Glu-Cys(&^2)-NH2][&^1(1,2-phenylenediyl)dimethylene&^2]}] gave an IC50 of 1 to 100 nM.
`CC(C)C[C@H](NC(=O)[C@@H]1CSCc2cc3ccccc3cc2CSC[C@H](NC(=O)[C@H](CCC(N)=O)NC(=O)[C@@H](N)CC(C)C)C(=O)N[C@@H](CC(=O)O)C(=O)N[C@@H](C)C(=O)N[C@@H](CCC(=O)O)C(=O)N[C@@H]([C@@H](C)O)C(=O)NCC(=O)N[C@@H](CCC(=O)O)C(=O)N1)C(=O)N1CCC[C@H]1C(=O)NCCC(=O)N[C@@H](CCCNC(=N)N)C(=O)N[C@@H](CCCCN)C(=O)N[C@@H](CCCCN)C(=O)N[C@@H](CCCNC(=N)N)C(=O)N[C@@H](CCCNC(=N)N)C(=O)N[C@@H](CCC(N)=O)C(=O)N[C@@H](CCCNC(=N)N)C(=O)N[C@@H](CCCNC(=N)N)C(=O)N[C@@H](CCCNC(=N)N)C(N)=O` [Example 30] was tested, and the IC50 was 1 to 100 nM.
`CC(C)C[C@H](NC(=O)[C@@H]1CSCc2ccccc2CSC[C@H](NC(=O)[C@H](CCC(N)=O)NC(=O)[C@@H](N)CC(C)C)C(=O)N[C@@H](CC(=O)O)C(=O)N2CCC[C@H]2C(=O)N[C@@H](CCC(=O)O)C(=O)N[C@@H]([C@@H](C)O)C(=O)NCC(=O)N[C@@H](CCC(=O)O)C(=O)N1)C(=O)N1CCC[C@H]1C(=O)NCCC(=O)N[C@@H](CCCNC(=N)N)C(=O)N[C@@H](CCCCN)C(=O)N[C@@H](CCCCN)C(=O)N[C@@H](CCCNC(=N)N)C(=O)N[C@@H](CCCNC(=N)N)C(=O)N[C@@H](CCC(N)=O)C(=O)N[C@@H](CCCNC(=N)N)C(=O)N[C@@H](CCCNC(=N)N)C(=O)N[C@@H](CCCNC(=N)N)C(N)=O` [Example 34] showed an IC50 of 1 to 100 nM.
Compound `CCCCCCCCCCCCCCCCCC(=O)NCCC(=O)N[C@@H](CC(C)C)C(=O)N[C@@H](CCC(N)=O)C(=O)N[C@H]1CSCc2ccccc2CSC[C@@H](C(=O)N[C@@H](CC(C)C)C(=O)N2CCC[C@H]2C(=O)O)NC(=O)[C@H](CCC(=O)O)NC(=O)CNC(=O)[C@H]([C@@H](C)O)NC(=O)[C@H](CCC(=O)O)NC(=O)[C@@H]2CCCN2C(=O)[C@H](CC(=O)O)NC1=O` [Example 35, {[Stearyl-βAla-Leu-Gln-Cys(&^1)-Asp-Pro-Glu-Thr-Gly-G1u-Cys(&^2)-Leu-Pro-OH][&^1(1,2-phenylenediyl)dimethylene&^2]}] ({Stearoyl-βAla}-LQCDPETGECLP-OH; linker 3-10 via oXylylene) has an IC50 of 1 to 100 nM.
With `CCCCCCCCCCCCCCCCCC(=O)NCCC(=O)N[C@@H](CC(C)C)C(=O)N[C@@H](CCC(N)=O)C(=O)N[C@H]1CSCc2cc3ccccc3cc2CSC[C@@H](C(=O)N[C@@H](CC(C)C)C(=O)N2CCC[C@H]2C(=O)O)NC(=O)[C@H](CCC(=O)O)NC(=O)CNC(=O)[C@H]([C@@H](C)O)NC(=O)[C@H](CCC(=O)O)NC(=O)[C@@H]2CCCN2C(=O)[C@H](CC(=O)O)NC1=O` [Example 36, {[Stearyl-βAla-Leu-Gln-Cys(&^1)-Asp-Pro-Glu-Thr-Gly-Glu-Cys(&^2)-Leu-Pro-OH][&^1(naphthalene)2,3-diyldimethylene&^2]}] ({Stearoyl-βAla}-LQCDPETGECLP-OH; linker 3-10 via X2) the IC50 was 1 to 100 nM.
`CCCCCCCCCCCCCCCCCC(=O)NCCC(=O)N[C@@H](CC(C)C)C(=O)N[C@@H](CCC(N)=O)C(=O)N[C@H]1CSCc2cccc(c2)CSC[C@@H](C(=O)N[C@@H](CC(C)C)C(=O)N2CCC[C@H]2C(=O)O)NC(=O)[C@H](CCC(=O)O)NC(=O)CNC(=O)[C@H]([C@@H](C)O)NC(=O)[C@H](CCC(=O)O)NC(=O)[C@@H]2CCCN2C(=O)[C@H](CC(=O)O)NC1=O` [Example 37, {[Stearyl-βA1a-Leu-Gln-Cys(&^1)-Asp-Pro-Glu-Thr-Gly-Glu-Cys(&^2)-Leu-Pro-OH][&^1(1,3-phenylenediyl)dimethylene&^2]}] ({Stearoyl-βAla}-LQCDPETGECLP-OH; linker 3-10 via mXylylene) gave an IC50 of 1 to 100 nM.
In the case of `CCCCCCCCCCCCCCCCCC(=O)NCCC(=O)N[C@@H](CC(C)C)C(=O)N[C@@H](CCC(N)=O)C(=O)N[C@H]1CSCc2cc3ccccc3cc2CSC[C@@H](C(=O)N[C@@H](CC(C)C)C(=O)N2CCC[C@H]2C(=O)O)NC(=O)[C@H](CCC(=O)O)NC(=O)CNC(=O)[C@H]([C@@H](C)O)NC(=O)[C@H](CCC(=O)O)NC(=O)[C@H](C)NC(=O)[C@H](CC(=O)O)NC1=O` [Example 38, {[Stearyl-βAla-Leu-Gln-Cys(&^1)-Asp-Ala-Glu-Thr-Gly-Glu-Cys(&^2)-Leu-Pro-OH][&^1(naphthalene)2,3-diyldimethylene&^2]}] ({Stearoyl-βAla}-LQCDAETGECLP-OH; linker 3-10 via X2), the IC50 is reported as 1 to 100 nM.
In the case of `CCCCCCCCCCCCCCCCCC(=O)NCCC(=O)N[C@@H](CC(C)C)C(=O)N[C@@H](CCC(N)=O)C(=O)N[C@H]1CSCc2cccc(c2)CSC[C@@H](C(=O)N[C@@H](CC(C)C)C(=O)N2CCC[C@H]2C(=O)O)NC(=O)[C@H](CCC(=O)O)NC(=O)CNC(=O)[C@H]([C@@H](C)O)NC(=O)[C@H](CCC(=O)O)NC(=O)[C@H](C)NC(=O)[C@H](CC(=O)O)NC1=O` [Example 39, {[Stearyl-βAla-Leu-Gln-Cys(&^1)-Asp-Ala-Glu-Thr-Gly-Glu-Cys(&^2)-Leu-Pro-OH][&^1(1,3-phenylenediyl)dimethylene&^2]}] ({Stearoyl-βAla}-LQCDAETGECLP-OH; linker 3-10 via mXylylene), the IC50 is reported as 1 to 100 nM.
`CCCCCCCCCCCCCCCCCC(=O)NCCC(=O)N[C@@H](CC(C)C)C(=O)N[C@@H](CCC(N)=O)C(=O)N[C@H]1Cc2cccc(c2)SC[C@@H](C(=O)N[C@@H](CC(C)C)C(=O)N2CCC[C@H]2C(=O)O)NC(=O)[C@H](CCC(=O)O)NC(=O)CNC(=O)[C@H]([C@@H](C)O)NC(=O)[C@H](CCC(=O)O)NC(=O)[C@@H]2CCCN2C(=O)[C@H](CC(=O)O)NC1=O` [Example 40, Stearyl-βAla-Leu-Gln-Phe(m-&^1)-Asp-Pro-Glu-Thr-Gly-Glu-Cys(&^1)-Leu-Pro-OH] ({Stearoyl-βAla}-LQ[X8]DPETGECLP-OH; thioether 3-10) gave an IC50 of 1 to 100 nM.
Work on `CC(=O)N[C@H]1CSCc2ccccc2CSC[C@@H](C(N)=O)NC(=O)[C@H](CCC(=O)O)NC(=O)CNC(=O)[C@H]([C@@H](C)O)NC(=O)[C@H](CCC(=O)O)NC(=O)[C@H](C)N(C)C(=O)[C@H](CC(=O)O)NC1=O` [Example 43, {[Acetyl-Cys(&^1)-Asp-MeAla-Glu-Thr-Gly-Glu-Cys(&^2)-NH2][&^1(1,2-phenylenediyl)dimethylene&^2]}] yielded an IC50 of 1 to 100 nM.

Source: US20200255478A1, “NOVEL COMPOUNDS ACTIVATING THE NRF2 PATHWAY” (Almirall, S.A., priority 2017, published 2020)
